According to PubChem BioAssay AID1963974 (Molecular Pharmacology Branch, DTP, NCI, 2024):

System: 648629-189-R-J1-PDC spheroids with HUVEC/MSC, viability
Assay: Anticancer human tumor 648629-189-R-J1-PDC patient-derived bladder carcinoma cell line growth inhibition [PI3K]
Details: for IC50: curve of first compound; for viability, T/C: stronger effect = lower value
Procedure, shortened: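 Tumor cells were combined with HUVEC and MSCs into spheroids, then dosed with PI3K-inhibitor combinations over half-log ranges capped near clinical Cmax or 10 microM.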

[1] = second compound 0.00316 µM, first compound 0.0316 µM
[2] = second compound 0.00316 µM, first compound 0.1 µM
[3] = second compound 0.00316 µM, first compound 0.316 µM
[4] = second compound 0.00316 µM, first compound 1 µM
[5] = second compound 0.00316 µM, first compound 3.16 µM
[6] = second compound 0.00316 µM, first compound 10 µM
[7] = second compound 0.01 µM, first compound 0.0316 µM
[8] = second compound 0.01 µM, first compound 0.1 µM
[9] = second compound 0.01 µM, first compound 0.316 µM
[10] = second compound 0.01 µM, first compound 1 µM
[11] = second compound 0.01 µM, first compound 3.16 µM
[12] = second compound 0.01 µM, first compound 10 µM
[13] = second compound 0.0316 µM, first compound 0.0316 µM
[14] = second compound 0.0316 µM, first compound 0.1 µM
[15] = second compound 0.0316 µM, first compound 0.316 µM
[16] = second compound 0.0316 µM, first compound 1 µM
[17] = second compound 0.0316 µM, first compound 3.16 µM
[18] = second compound 0.0316 µM, first compound 10 µM
[19] = second compound 0.1 µM, first compound 0.0316 µM
[20] = second compound 0.1 µM, first compound 0.1 µM
[21] = second compound 0.1 µM, first compound 0.316 µM
[22] = second compound 0.1 µM, first compound 1 µM
[23] = second compound 0.1 µM, first compound 3.16 µM
[24] = second compound 0.1 µM, first compound 10 µM
[25] = second compound 0.316 µM, first compound 0.0316 µM
[26] = second compound 0.316 µM, first compound 0.1 µM
[27] = second compound 0.316 µM, first compound 0.316 µM
[28] = second compound 0.316 µM, first compound 1 µM
[29] = second compound 0.316 µM, first compound 3.16 µM
[30] = second compound 0.316 µM, first compound 10 µM
[31] = second compound 1 µM, first compound 0.0316 µM
[32] = second compound 1 µM, first compound 0.1 µM
[33] = second compound 1 µM, first compound 0.316 µM
[34] = second compound 1 µM, first compound 1 µM
[35] = second compound 1 µM, first compound 3.16 µM
[36] = second compound 1 µM, first compound 10 µM
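Note: spheroids exposed to agents for seven days before reading.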
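Throughout, for viability, T/C: percent of vehicle control luminescence where 100% = DMSO treated spheroids.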

C#Cc1c(F)ccc2cc(O)cc(-c3ncc4c(N5CC6CCC(C5)N6)nc(OCC56CCCN5CC(F)C6)nc4c3F)c12 (centres undefined) + COc1c(OCCCN2CCOCC2)ccc2c3n(c(=NC(=O)c4cnc(N)nc4)nc12)CCN3
IC50 (second compound 0.00316 µM): > 10 µM | IC50 (second compound 0.01 µM): > 10 µM | IC50 (second compound 0.0316 µM): > 10 µM | IC50 (second compound 0.1 µM): > 10 µM | IC50 (second compound 0.316 µM): < 0.0316 µM | IC50 (second compound 1 µM): < 0.0316 µM | viability, T/C [1]: 107% | viability, T/C [2]: 100% | viability, T/C [3]: 96.5% | viability, T/C [4]: 112% | viability, T/C [5]: 105% | viability, T/C [6]: 94.6% | viability, T/C [7]: 112% | viability, T/C [8]: 104% | viability, T/C [9]: 103% | viability, T/C [10]: 113% | viability, T/C [11]: 102% | viability, T/C [12]: 103% | viability, T/C [13]: 89.4% | viability, T/C [14]: 91.2% | viability, T/C [15]: 85.9% | viability, T/C [16]: 92.2% | viability, T/C [17]: 79.7% | viability, T/C [18]: 91.5% | viability, T/C [19]: 67.2% | viability, T/C [20]: 61.3% | viability, T/C [21]: 58.2% | viability, T/C [22]: 60.6% | viability, T/C [23]: 65.1% | viability, T/C [24]: 57.5% | viability, T/C [25]: 24.3% | viability, T/C [26]: 21.2% | viability, T/C [27]: 18.3% | viability, T/C [28]: 19.8% | viability, T/C [29]: 17.9% | viability, T/C [30]: 5.74% | viability, T/C [31]: 3.22% | viability, T/C [32]: 2.48% | viability, T/C [33]: 2.94% | viability, T/C [34]: 3.35% | viability, T/C [35]: 3.07% | viability, T/C [36]: 0.58%

C=CC(=O)N1CCN(c2nc(=O)n(-c3c(C)ccnc3C(C)C)c3nc(-c4c(O)cccc4F)c(F)cc23)C(C)C1 (centres undefined) + COc1c(OCCCN2CCOCC2)ccc2c3n(c(=NC(=O)c4cnc(N)nc4)nc12)CCN3
IC50 (second compound 0.00316 µM): > 10 µM | IC50 (second compound 0.01 µM): > 10 µM | IC50 (second compound 0.0316 µM): > 10 µM | IC50 (second compound 0.1 µM): > 10 µM | IC50 (second compound 0.316 µM): < 0.0316 µM | IC50 (second compound 1 µM): < 0.0316 µM | viability, T/C [1]: 114% | viability, T/C [2]: 108% | viability, T/C [3]: 114% | viability, T/C [4]: 108% | viability, T/C [5]: 119% | viability, T/C [6]: 99.9% | viability, T/C [7]: 94.3% | viability, T/C [8]: 91.3% | viability, T/C [9]: 101% | viability, T/C [10]: 113% | viability, T/C [11]: 115% | viability, T/C [12]: 79.1% | viability, T/C [13]: 83.4% | viability, T/C [14]: 81.9% | viability, T/C [15]: 104% | viability, T/C [16]: 94.6% | viability, T/C [17]: 107% | viability, T/C [18]: 87.8% | viability, T/C [19]: 57.3% | viability, T/C [20]: 64.5% | viability, T/C [21]: 63.5% | viability, T/C [22]: 79.1% | viability, T/C [23]: 81.3% | viability, T/C [24]: 77.2% | viability, T/C [25]: 18.8% | viability, T/C [26]: 22.1% | viability, T/C [27]: 29% | viability, T/C [28]: 25.5% | viability, T/C [29]: 38% | viability, T/C [30]: 35.3% | viability, T/C [31]: 3.7% | viability, T/C [32]: 4.13% | viability, T/C [33]: 4.67% | viability, T/C [34]: 6.38% | viability, T/C [35]: 7.09% | viability, T/C [36]: 8.01%
